Our source for the EC50 and Emax values is patent US11472803B2, “7-substituted 1-aryl-naphthyridine-3-carboxylic acid amides and use thereof” (Bayer Aktiengesellschaft, priority 2016, dated 2022).

In the experiment the target is T1, human M2 receptor (Homo sapiens, UniProt P08172).
T1 construct: expressed in transfected cells; host or cells: CHO-DUKX (CHO-DUKX-M2-GIRK)
T1 sequence (P08172 1-466): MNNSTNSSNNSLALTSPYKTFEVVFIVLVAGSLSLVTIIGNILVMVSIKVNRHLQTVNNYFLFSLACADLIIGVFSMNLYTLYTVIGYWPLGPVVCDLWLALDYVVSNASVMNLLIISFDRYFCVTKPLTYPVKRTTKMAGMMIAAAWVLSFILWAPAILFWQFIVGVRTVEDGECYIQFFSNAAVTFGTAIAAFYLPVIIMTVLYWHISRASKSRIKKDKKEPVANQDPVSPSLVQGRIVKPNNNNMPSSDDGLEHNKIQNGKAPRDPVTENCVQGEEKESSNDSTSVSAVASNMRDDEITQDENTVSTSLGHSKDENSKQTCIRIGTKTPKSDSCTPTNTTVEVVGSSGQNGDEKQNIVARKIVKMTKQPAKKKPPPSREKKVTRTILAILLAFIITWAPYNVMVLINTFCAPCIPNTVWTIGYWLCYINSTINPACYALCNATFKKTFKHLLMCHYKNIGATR
Kind of experiment: Functional M2-GIRK1/4 activation test: allosteric potency (EC50) and efficiency at EC20 acetylcholine. It is filed as cell-based. Particulars: CHO-DUKX-M2-GIRK cells; for EC50: voltage-sensitive dye, acetylcholine at EC20, in some cases mean of two or more determinations; for Emax: boosting of the acetylcholine effect at EC20 acetylcholine concentration. The gist of the method: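 Positive allosteric modulation measured as boosting of an EC20 acetylcholine response: hyperpolarization via GIRK1/4 in CHO-DUKX-M2-GIRK cells, monitored by membrane-potential dye fluorescence over 60 s after agonist, compound preadded. Hill-function fit gives EC50 and efficiency.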

What is called EC50 is the concentration giving half of the maximal effect. A lower EC50 goes with higher potency in that assay. The term Emax denotes the greatest response seen or fitted, relative to the assay's reference.

`O=C(NCc1c(Cl)cccc1Cl)c1cn(-c2c(F)cc(F)cc2F)c2nc(N3C[C@@H](O)[C@H](O)C3)c(F)cc2c1=O` [Example 132, N-(2,6-Dichlorobenzyl)-7-[(3R,4R)-3,4-dihydroxypyrrolidin-1-yl]-6-fluoro-4-oxo-1-(2,4,6-tri-fluorophenyl)-1,4-dihydro-1,8-naphthyridine-3-carboxamide] came in with a concentration for a half-maximal effect (EC50) of 10 nM and a maximal effect (Emax) of 99%.
For `O=C(Nc1c(Cl)cccc1Cl)c1cn(-c2ccc(F)cc2F)c2ncc(Cl)cc2c1=O` [Example 133, 6-Chloro-N-(2,6-dichlorophenyl)-1-(2,4-difluorophenyl)-4-oxo-1,4-dihydro-1,8-naphthyridine-3-carboxamide], a half-maximal response (EC50) required 1600 nM and the Emax turned out to be 81%.
Taken in the same sequence, the figures for `CC(C)C(NC(=O)c1cn(-c2c(F)cc(F)cc2Cl)c2nc(N3C[C@@H](O)[C@H](O)C3)c(F)cc2c1=O)C(F)(F)F` (stereo partly drawn) [Example 136, 1-(2-Chloro-4,6-difluorophenyl)-7-[(3R,4R)-3,4-dihydroxypyrrolidin-1-yl]-6-fluoro-4-oxo-N-[1,1,1-trifluoro-3-methylbutan-2-yl]-1,4-dihydro-1,8-naphthyridine-3-carboxamide] were 2.8 nM and 84%.
With `CC(C)(NC(=O)c1cn(-c2c(F)cc(F)cc2Cl)c2nc(N3C[C@@H](O)[C@H](O)C3)c(F)cc2c1=O)C(F)F` [Example 141, 1-(2-Chloro-4,6-difluorophenyl)-N-(1,1-difluoro-2-methylpropan-2-yl)-7-[(3R,4R)-3,4-dihydroxypyrrolidin-1-yl]-6-fluoro-4-oxo-1,4-dihydro-1,8-naphthyridine-3-carboxamide], the concentration for a half-maximal effect (EC50) was 3.4 nM and the Emax is 97%.
The compound `O=C(N[C@@H](C1CC1)C(F)(F)F)c1cn(-c2c(F)cc(F)cc2F)c2nc(N3CCOCC3)c(F)cc2c1=O` [Example 147, N-[(1S)-Cyclopropyl-2,2,2-trifluoroethyl]-6-fluoro-7-(morpholin-4-yl)-4-oxo-1-(2,4,6-trifluorophenyl)-1,4-dihydro-1,8-naphthyridine-3-carboxamide] showed an EC50 of 16 nM and an Emax of 94%.
`CC(C)(NC(=O)c1cn(-c2c(F)cc(F)cc2F)c2nc(N3CCOCC3)c(F)cc2c1=O)C(F)(F)F` [Example 149, 6-Fluoro-7-(morpholin-4-yl)-4-oxo-N-(1,1,1-trifluoro-2-methylpropan-2-yl)-1-(2,4,6-trifluorophenyl)-1,4-dihydro-1,8-naphthyridine-3-carboxamide] showed an EC50 of 21 nM and an Emax of 92%.
Compound `CC(C)(NC(=O)c1cn(-c2c(F)cc(F)cc2F)c2nc(N3CCOCC3)c(F)cc2c1=O)C(F)F` [Example 150, N-(1,1-Difluoro-2-methylpropan-2-yl)-6-fluoro-7-(morpholin-4-yl)-4-oxo-1-(2,4,6-trifluoro-phenyl)-1,4-dihydro-1,8-naphthyridine-3-carboxamide] displayed an EC50 of 24 nM and an Emax of 93%.
For the compound `CC[C@H](NC(=O)c1cn(-c2c(F)cc(F)cc2F)c2nc(N3CCOCC3)c(F)cc2c1=O)C(F)(F)F` [Example 151, 6-Fluoro-7-(morpholin-4-yl)-4-oxo-N-[(2S)-1,1,1-trifluorobutan-2-yl]-1-(2,4,6-trifluoro-phenyl)-1,4-dihydro-1,8-naphthyridine-3-carboxamide], the half-maximal effective concentration (EC50) came out at 24 nM and the maximal effect (Emax) stood at 100%.
In turn, `CC[C@H](NC(=O)c1cn(-c2ncc(F)cc2F)c2nc(N3CC[C@H](O)C3)c(F)cc2c1=O)C(F)(F)F` [Example 152, 1-(3,5-Difluoropyridin-2-yl)-6-fluoro-7-[(3S)-3-hydroxypyrrolidin-1-yl]-4-oxo-N-[(2S)-1,1,1-trifluorobutan-2-yl]-1,4-dihydro-1,8-naphthyridine-3-carboxamide] had an EC50 of 53 nM and an Emax of 100%.
For `O=C(N[C@@H](C1CC1)C(F)(F)F)c1cn(-c2ncc(F)cc2F)c2nc(N3CC[C@H](O)C3)c(F)cc2c1=O` [Example 153, N-[(1S)-1-Cyclopropyl-2,2,2-trifluoroethyl]-1-(3,5-difluoropyridin-2-yl)-6-fluoro-7-[(3S)-3-hydroxypyrrolidin-1-yl]-4-oxo-1,4-dihydro-1,8-naphthyridine-3-carboxamide] the same measures were 48 nM and 99%.
Taken in the same sequence, the figures for `CC(C)(NC(=O)c1cn(-c2ncc(F)cc2F)c2nc(N3CC[C@H](O)C3)c(F)cc2c1=O)C(F)(F)F` [Example 154, 1-(3,5-Difluoropyridin-2-yl)-6-fluoro-7-[(3S)-3-hydroxypyrrolidin-1-yl]-4-oxo-N-(1,1,1-tri-fluoro-2-methylpropan-2-yl)-1,4-dihydro-1,8-naphthyridine-3-carboxamide] were 97 nM and 100%.
`CC[C@@H](NC(=O)c1cn(-c2c(F)cc(F)cc2F)c2nc(N3C[C@@H](O)[C@@H](O)C3)c(F)cc2c1=O)C(F)(F)F` [Example 155, 7-[(3R,4S)-3,4-Dihydroxypyrrolidin-1-yl]-6-fluoro-4-oxo-N-[(2R)-1,1,1-trifluorobutan-2-yl]-1-(2,4,6-trifluorophenyl)-1,4-dihydro-1,8-naphthyridine-3-carboxamide] displayed an EC50 of 11 nM and a maximum response (Emax) of 100%.
Taken in the same sequence, the figures for `CC[C@@H](NC(=O)c1cn(-c2c(F)cc(F)cc2F)c2nc(N3C[C@H](O)[C@@H](O)C3)c(F)cc2c1=O)C(F)(F)F` [Example 156, 7-[(3S,4S)-3,4-Dihydroxypyrrolidin-1-yl]-6-fluoro-4-oxo-N-[(2R)-1,1,1-trifluorobutan-2-yl]-1-(2,4,6-trifluorophenyl)-1,4-dihydro-1,8-naphthyridine-3-carboxamide] were 11 nM and 100%.
With `CC(NC(=O)c1cn(-c2c(F)cc(F)cc2F)c2nc(N3C[C@@H](O)[C@H](O)C3)c(Br)cc2c1=O)C(F)(F)C(F)(F)F` (stereo partly drawn) [Example 158, 6-Bromo-7-[(3R,4R)-3,4-dihydroxypyrrolidin-1-yl]-4-oxo-N-[3,3,4,4,4-pentafluorobutan-2-yl]-1-(2,4,6-trifluorophenyl)-1,4-dihydro-1,8-naphthyridine-3-carboxamide], the concentration for a half-maximal effect (EC50) amounted to 3.7 nM and the Emax is 100%.
For `C[C@H](NC(=O)c1cn(-c2c(F)cc(F)cc2F)c2nc(N3C[C@@H](O)[C@H](O)C3)c(F)cc2c1=O)c1ccccc1` [Example 167, 7-[(3R,4R)-3,4-Dihydroxypyrrolidin-1-yl]-6-fluoro-4-oxo-N-[(1S)-1-phenylethyl]-1-(2,4,6-tri-fluorophenyl)-1,4-dihydro-1,8-naphthyridine-3-carboxamide] the same measures were 7.4 nM and 95%.
Take `Cc1cc(F)cc(C)c1-n1cc(C(=O)N[C@@H](C2CC2)C(F)(F)F)c(=O)c2cc(F)c(N3C[C@@H](O)[C@H](O)C3)nc21` [Example 175, N-[(1S)-1-Cyclopropyl-2,2,2-trifluoroethyl]-7-[(3R,4R)-3,4-dihydroxypyrrolidin-1-yl]-6-fluoro-1-(4-fluoro-2,6-dimethylphenyl)-4-oxo-1,4-dihydro-1,8-naphthyridine-3-carboxamide]: the EC50 was 73 nM and the maximal effect (Emax) was 83%.
The compound `CN1CCN(c2nc3c(cc2F)c(=O)c(C(=O)N[C@@H](C2CC2)C(F)(F)F)cn3-c2c(F)cc(F)cc2F)C(CO)C1` (stereo partly drawn) [Example 176, N-[(1S)-1-Cyclopropyl-2,2,2-trifluoroethyl]-6-fluoro-7-[2-(hydroxymethyl)-4-methylpiperazin-1-yl]-4-oxo-1-(2,4,6-trifluorophenyl)-1,4-dihydro-1,8-naphthyridine-3-carboxamide] gave a concentration giving a half-maximal response (EC50) of 110 nM and a maximum response (Emax) of 91%.
`Cc1cc(F)cc(C)c1-n1cc(C(=O)N[C@H](C2CC2)C(F)(F)F)c(=O)c2cc(F)c(N3C[C@@H](O)CC3=O)nc21` [Example 177, N-[(1R)-1-Cyclopropyl-2,2,2-trifluoroethyl]-6-fluoro-1-(4-fluoro-2,6-dimethylphenyl)-7-[(4S)-4-hydroxy-2-oxopyrrolidin-1-yl]-4-oxo-1,4-dihydro-1,8-naphthyridine-3-carboxamide] showed a concentration for a half-maximal effect (EC50) of 530 nM and an Emax of 77%.
For `CC[C@H](NC(=O)c1cn(-c2c(F)cc(F)cc2F)c2nc(N3C[C@H](O)[C@@H](O)C3)c(F)cc2c1=O)C(F)(F)F` [Example 178, 7-[(3S,4S)-3,4-Dihydroxypyrrolidin-1-yl]-6-fluoro-4-oxo-N-[(2S)-1,1,1-trifluorobutan-2-yl]-1-(2,4,6-trifluorophenyl)-1,4-dihydro-1,8-naphthyridine-3-carboxamide] the same measures were 17 nM and 99%.
Turning to `CN1CCN(c2nc3c(cc2F)c(=O)c(C(=O)N[C@@H](C2CC2)C(F)(F)F)cn3-c2c(F)cc(F)cc2F)CC1CO` (stereo partly drawn) [Example 179, N-[(1S)-1-Cyclopropyl-2,2,2-trifluoroethyl]-6-fluoro-7-[3-(hydroxymethyl)-4-methylpiperazin-1-yl]-4-oxo-1-(2,4,6-trifluorophenyl)-1,4-dihydro-1,8-naphthyridine-3-carboxamide], the 50% effective concentration (EC50) was 27 nM and the maximal effect (Emax) was determined as 100%.
